# Test results published in article PMC9995496, “A screen for MeCP2-TBL1 interaction inhibitors using a luminescence-based assay” (Scientific Reports, 2023).
# Counter-ions that a name gives are not always drawn. Like-named read-outs stand apart in the source and are kept apart here.
# Test system: PRKACA-PRKAR2A interaction (SmBiT-PRKACA / LgBiT-PRKAR2A), protein kinase A
# Design: NanoLuc complementation counter-screen in cell extract, PRKACA with PRKAR2A, loss of luminescence, detects NanoLuc interference
# Details: 0.5 h, 20 µM, inhibitor
# [1] = counter-screen for NanoLuc interference
# [2] = counter-screen for NanoLuc interference, Inh (PKA)
SMILES,Inh (PKA) [1] [%],other results
"C[C@]12CC[C@@H]3c4ccc(OC(=O)c5ccccc5)cc4CC[C@H]3[C@@H]1CC[C@@H]2O [UM0142395:01, Estradiol Benzoate]",19.47,
"O=C(Oc1ccc([N+](=O)[O-])cc1)N1CCC(C(O)(c2ccc3c(c2)OCO3)c2ccc3c(c2)OCO3)CC1 [UM0142396:01, JZL184]",,Inh (PKA): 16.72%
"CN(C)C(=N)NC(=N)N [UM0142397:01, Metformin HCl]",1.975,
"O=C(NC(Cc1cc(=O)[nH]c2ccccc12)C(=O)O)c1ccc(Cl)cc1 (centres unmarked) [UM0142401:01, Rebamipide]",2.079,
"C=C[C@]1(C)C[C@@H](OC(=O)CS[C@@H]2C[C@H]3CC[C@@H](C2)N3C)[C@]2(C)[C@H](C)CC[C@]3(CCC(=O)[C@H]32)[C@@H](C)[C@@H]1O [UM0142402:01, Retapamulin]",4.258,
"CCCN1CCCC[C@H]1C(=O)Nc1c(C)cccc1C [UM0142404:01, Ropivacaine HCl]",0.01917,
"Cc1ccc(S(=O)(=O)Cc2nc(-c3ccc(C(=O)NCc4cccnc4)cc3)oc2C)cc1 [UM0142406:01, STF-118804]",1.65,
"CN[C@@H]1[C@H](O[C@H]2[C@H](O[C@H]3[C@H](O)[C@@H](O)[C@H](N=C(N)N)[C@@H](O)[C@@H]3N=C(N)N)O[C@@H](C)[C@]2(O)C=O)O[C@@H](CO)[C@H](O)[C@H]1O [UM0142407:01, Streptomycin sulfate]",1.585,
"CC1(C)[C@H](C(=O)O)N2C(=O)C[C@H]2S1(=O)=O [UM0142408:01, Sulbactam sodium]",1.508,
"CCN=C1N[C@@H]2[C@@H](O)[C@H](O)[C@@H](CO)O[C@@H]2S1 [UM0142409:01, Thiamet G]",-0.5508,
"CN(C)C(=O)COC(=O)Cc1ccc(OC(=O)c2ccc(NC(=N)N)cc2)cc1 [UM0142412:01, Camostat Mesilate]",0.7864,
"C=C[C@H]1CN2CC[C@H]1C[C@H]2[C@H](O)c1ccnc2ccc(OC)cc12 [UM0142415:01, Quinine HCl Dihydrate]",1.874,
"C=C1CC[C@H](O)C/C1=C/C=C1\CCC[C@]2(C)[C@@H]([C@H](C)CCCC(C)(C)O)CC[C@@H]12 [UM0142419:01, Calcifediol]",12.98,
"CCC(CC)[C@H](NC(C)=O)[C@@H]1[C@H](O)[C@@H](C(=O)O)C[C@H]1NC(=N)N [UM0142420:01, Peramivir Trihydrate]",,Inh (PKA) [2]: 0.7131%
"Cc1cccc(Nc2nc(-c3ccncc3)cs2)c1 [UM0142421:01, STF-62247]",25.96,
"C=C1/C(=C\C=C2/CCC[C@]3(C)[C@@H]([C@H](C)CCCC(C)C)CC[C@@H]23)C[C@@H](O)C[C@@H]1O [UM0142422:01, Alfacalcidol]",10.76,
"Cc1cc(OCc2nnc(SC3CCCC3)n2-c2cccnc2)ccc1-c1ccc(S(C)(=O)=O)cc1 [UM0142426:01, NMS-873]",10.54,
"Nc1ncnc2c1c(-c1cnc3[nH]ccc3c1)nn2C1CCCC1 [UM0142428:01, PP121]",28.88,
"COCCOc1ccc2c(c1)ncn2-c1ccc2cccc(N3CCC(N)CC3)c2n1 [UM0142429:01, CP-673451]",21.57,
"CNc1nc(-c2ccc3c(N)n[nH]c3c2)cc(N2C[C@@H](C(=O)NC3CCCCC3)CC[C@H]2C)n1 [UM0142430:01, GSK2334470]",2.681,
"Cc1cccc(CC(=O)N2CCc3c2ccc(-c2cn(C)c4ncnc(N)c24)c3F)n1 [UM0142431:01, GSK2656157]",-0.3115,

SMILES,Inh (PKA) [1] [%],other results
"O=C1NC(=O)/C(=C/c2ccc3nccc(-c4ccncc4)c3c2)S1 [UM0142432:01, GSK1059615]",27.08,
"Cc1c(CN2CCN(C(=O)[C@H](C)O)CC2)sc2c(N3CCOCC3)nc(-c3cnc(N)nc3)nc12 [UM0142435:01, GDC-0980 (RG7422)]",0.4199,
"Cc1c(Cn2c(C)nc3c(C(=O)O)cc(N4CCOCC4)cc32)cccc1C(F)(F)F [UM0142436:01, GSK2636771]",-0.2162,
"Cn1cc(C2=C(c3cn(CCCSC(=N)N)c4ccccc34)C(=O)NC2=O)c2ccccc21 [UM0142439:01, Ro 31-8220 Mesylate]",76.02,
"COc1ccc2[nH]c([S@@+]([O-])Cc3ncc(C)c(OC)c3C)nc2c1 [UM0142444:01, Esomeprazole Magnesium]",,Inh (PKA) [2]: 3.498%
"CCOC(=O)[C@H](CCc1ccccc1)N[C@H]1CS[C@H](c2cccs2)CN(CC(=O)O)C1=O [UM0142447:01, Temocapril HCl]",1.04,
"COCCCOc1cc(C[C@@H](C[C@H](N)[C@@H](O)C[C@H](C(=O)NCC(C)(C)C(N)=O)C(C)C)C(C)C)ccc1OC [UM0142448:01, Aliskiren Hemifumarate]",6.646,
"CCn1c2ccccc2c2cc(Nc3ccnc(NCCCN4CCOCC4)n3)ccc21 [UM0142449:01, EHop-016]",37.03,
"Cc1cn([C@H]2C[C@H](N=[N+]=[N-])[C@@H](CO)O2)c(=O)[nH]c1=O [UM0142451:01, Zidovudine]",1.207,
"CC(C)(C)C(=O)OCOP(=O)(COCCn1cnc2c(N)ncnc21)OCOC(=O)C(C)(C)C [UM0142452:01, Adefovir Dipivoxil]",-0.7793,
"Cc1cc(C#N)cc(C)c1Oc1nc(Nc2ccc(C#N)cc2)nc(N)c1Br [UM0142453:01, Etravirine (TMC125)]",89.04,
"Cc1cn([C@H]2C=C[C@@H](CO)O2)c(=O)[nH]c1=O [UM0142454:01, Stavudine (d4T)]",0.5167,
"CC(C)CCN1c2nc(Nc3cc(F)c(O)c(F)c3)ncc2N(C)C(=O)C1C (centres unmarked) [UM0142455:01, BI-D1870]",64.82,
"CCc1cncnc1N1CCN(Cc2nc3ccc(C(F)(F)F)cc3[nH]2)CC1 [UM0142456:01, PF-4708671]",34.33,
"CNS(=O)(=O)CCc1ccc2[nH]cc(C3CCN(C)CC3)c2c1 [UM0142462:01, Naratriptan]",-0.5355,
"Nc1c(Br)cc(Br)cc1CN[C@H]1CC[C@H](O)CC1 [UM0142466:01, Ambroxol HCl]",4.132,
"O=C1NC(=O)C(c2ccccc2)(c2ccccc2)N1 [UM0142467:01, Phenytoin]",11.36,
"CCOC(=O)C1=C[C@]2(CC)CCCN3CCc4c(n1c1ccccc41)[C@@H]32 [UM0142468:01, Vinpocetine]",12.65,
"COc1cc(NC(=O)c2ccc(-c3ccc(Cl)cc3)o2)cc(OC)c1 [UM0142469:01, A-803467]",40.39,
"CCCCCCCN(CC)CCCC(O)c1ccc(NS(C)(=O)=O)cc1 (centres unmarked) [UM0142470:01, Ibutilide Fumarate]",0.4733,
"O=C(Cc1ccc(-c2ccc(OCCN3CCOCC3)cc2)cn1)NCc1ccccc1 [UM0142472:01, KX2-391]",,Inh (PKA) [2]: 3.767%

SMILES,Inh (PKA) [1] [%],other results
"COc1cc(Nc2ncc(F)c(Nc3ccc4c(n3)N(COP(=O)(O)O)C(=O)C(C)(C)O4)n2)cc(OC)c1OC [UM0142473:01, Fostamatinib (R788)]",,Inh (PKA) [2]: 53.12%
"COc1cc(-c2cc(-c3cccc(O)c3)cnc2N)cc(OC)c1OC [UM0142474:01, K02288]",26.47,
"Cc1cccc(-c2[nH]c(C(C)(C)C)nc2-c2ccc3c(c2)OCO3)n1 [UM0142475:01, SB505124]",,Inh (PKA) [2]: 12.17%
"COc1cccc2c1C(=O)c1c(O)c3c(c(O)c1C2=O)C[C@@](O)(C(=O)CO)C[C@@H]3O[C@H]1C[C@H](N)[C@H](O[C@@H]2CCCCO2)[C@H](C)O1 [UM0142479:01, Pirarubicin]",33.32,
"CC[C@@]1(O)C(=O)OCc2c1cc1n(c2=O)Cc2cc3c(CN(C)C)c(O)ccc3nc2-1 [UM0142480:01, Topotecan HCl]",19.17,
"CCn1c(N)c(C(=O)NC)c(=O)c2ccc(C#C[C@@](C)(O)COC)nc21 [UM0142483:01, SAR131675]",0.3639,
"O=C(CSc1nc2c(c(=O)n1-c1ccccc1)SCC2)Nc1ccc(-c2ccccc2)cn1 [UM0142486:01, IWP-L6]",23.47,
"Cc1cc(-c2ncc(CC(=O)Nc3ccc(-c4cnccn4)cn3)cc2C)ccn1 [UM0142488:01, LGK-974]",0.7443,
"O=C(O)c1cc2cccc([N+](=O)[O-])c2[nH]1 [UM0142492:01, CRT0044876]",5.384,
"NC(=S)N/N=C/c1ncccc1N [UM0142496:01, Triapine]",0.417,
"CCCN1CCN(c2ccc(C(=O)NC3(C(=O)NCC#N)CCCCC3)cc2)CC1 [UM0142500:01, Balicatib]",-0.9688,
"CCOC(=O)[C@H](C)C[C@@H](Cc1ccc(-c2ccccc2)cc1)NC(=O)CCC(=O)O [UM0142501:01, AHU-377 hemicalcium salt]",,Inh (PKA) [2]: 0.8137%
"CCC(Sc1nnc2c(n1)[nH]c1ccccc12)C(=O)N1c2ccccc2Sc2ccccc21 (centres unmarked) [UM0142503:01, Inauhzin]",40.51,
"CCCCCCCc1ccc(CCc2cccc(O)c2C(=O)O)cc1 [UM0142505:01, MG 149]",11.49,
"CC(C)NCC(O)c1ccc(NS(C)(=O)=O)cc1 (centres unmarked) [UM0142510:01, Sotalol hydrochloride]",-0.9356,
"O=C(c1ccccc1)c1ccc2n1CCC2C(=O)O (centres unmarked) [UM0142511:01, Ketorolac]",,Inh (PKA) [2]: 0.7443%
"COCCCOc1ccnc(C[S+]([O-])c2nc3ccccc3[nH]2)c1C (centres unmarked) [UM0142515:01, Rabeprazole]",0.62,
"C#C[C@]1(O)CC[C@H]2[C@@H]3CCC4=CC(=O)CC[C@@H]4[C@H]3C(=C)C[C@@]21CC [UM0142516:01, Etonogestrel]",8.15,
"CC(C)C(=O)OCC(=O)[C@@]12O[C@H](C3CCCCC3)O[C@@H]1C[C@H]1[C@@H]3CCC4=CC(=O)C=C[C@]4(C)[C@H]3[C@@H](O)C[C@@]12C [UM0142517:01, Ciclesonide]",3.161,
"CC(=O)O[C@H]1Cc2ccccc2N(C(N)=O)c2ccccc21 [UM0142518:01, Eslicarbazepine acetate]",-0.7534,
